Assay results reported in patent publication US12465637B2, “Compositions and methods for modulation of antibody activity” (Institute for Cancer Research, priority 2019, dated 2025).

Experiments:
CTLA-4 = CTLA-4 sandwich ELISA (BioLegend); assay type: binding; conditions: compared with ipilimumab
Method: Two anti-CTLA-4 scFv constructs (3GSWT with -GG(GGSGG)3GG- linker (SEQ ID NO: 6) and 5GSWT with -GG(GGSGG)5GG- linker (SEQ ID NO: 7)) were generated based on ipilimumab. The activity of each scFv antibody construct was compared via a sandwich ELISA assay (BioLegend; San Diego, CA), according to the manufacturer's instruction.
The triple mutation (VLF98G/VHV37A/VHW110G) was introduced into the 5GSWT scFv construct. The ability of JK43 to rescue the triple mutant was then tested. Briefly, the ability of the wild-type (5GSWT scFv construct) and triple mutant constructs to bind CTLA-4 was tested in the presence or absence of JK43 using the above sandwich ELISA assay, according to the manufacturer's instructions.

[1] = test system: 4D5Flu triple mutant (VLF98G/VHV37A/VHW110G); experiment: Fluorescein fluorescence quenching, effector (JK43/analog) rescue of triple mutant; assay type: biochemical; conditions: effector titration; 500 nM triple mutant, 10 nM fluorescein, 1% DMSO
Method: For the protein titration experiment, samples were prepared by titrating varying concentrations of protein (WT or triple mutant) into PBS containing a final concentration of 10 nM fluorescein and 1% DMSO, with or without 100 μM JK43. For the JK43 titration experiment, samples were prepared by titrating varying concentrations of JK43 into PBS with a final concentration of 10 nM fluorescein, 1% DMSO and 500 nM protein (WT or triple mutant). For the SAR experiment, samples were prepared by adding 10 μM of JK43 analogs into PBS with a final concentration of 10 nM fluorescein, 1% DMSO and 500 nM triple mutant.
Fluorescence quenching experiments were carried out in a SpectraMax® i3x Multi-Mode Microplate Reader (Molecular Devices), using a Costar 96-well black round bottom plates, 200 μL reaction volume, excitation wavelength of 475 nm and emission wavelength of 525 nm, at a temperature of 27° C. Blank measurements containing all sample components except fluorescein were subtracted to remove background. All samples were normalized to a control of fluorescein alone (0% quenching) and buffer alone (100% quenching).

**Q.** With “3GSWT: anti-CTLA-4 scFv based on ipilimumab with -GG(GGSGG)3GG- linker (SEQ ID NO: 22)” as the compound, how does the “Binding of CTLA-4 (FIG. 6B)” value (CTLA-4) read?
**A.** readily bind CTLA-4, albeit slightly less potently than ipilimumab

**Q.** For c1ccc(COc2ccc3cc[nH]c3c2)cc1 [JK25, 6-phenylmethoxy-1H-indole], which EC50 [1] is on record?
**A.** 25 µM

**Q.** c1ccc(COc2ccc3cn[nH]c3c2)cc1 [JK43, 6-phenylmethoxy-1H-indazole] was tested. Which EC50 [1] did it give?
**A.** 16 µM
